Source: US10294202B2, “Pyrrolidinones as herbicides” (FMC Corporation, priority 2013, dated 2019)

Tests used:
velvetleaf = assay: Test A pre-/postemergence herbicide test; format: in vivo, Abutilon theophrasti
In short: (§1)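 Visual injury ratings, 0 = no effect, 100 = complete control, taken ~10 days after treatment against untreated greenhouse controls. Preemergence: directed soil spray onto seeded loam/sand pots. Postemergence: spray onto plants at one- to two-leaf stage, 2–10 cm tall.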

sedge, umbrella = assay: Test B flooded paddy test; format: in vivo, Cyperus difformis; details: Flood, scale of 0 to 100 where 0 is no effect and 100 is complete control
Method: (§2) Plant species in the flooded paddy test selected from rice (Oryza sativa), sedge, umbrella (small-flower umbrella sedge, Cyperus difformis), ducksalad (Heteranthera limosa), and barnyardgrass (Echinochloa crus-galli) were grown to the 2-leaf stage for testing. At time of treatment, test pots were flooded to 3 cm above the soil surface, treated by application of test compounds directly to the paddy water, and then maintained at that water depth for the duration of the test. Treated plants and controls were maintained in a greenhouse for 13 to 15 days, after which time all species were compared to controls and visually evaluated. Plant response ratings, summarized in Table B, are based on a scale of 0 to 100 where 0 is no effect and 100 is complete control. A dash (-) response means no test result.

corn = assay: Test A pre-/postemergence herbicide test; format: in vivo, Zea mays
In short: as §1

giant foxtail = assay: Test A pre-/postemergence herbicide test; format: in vivo, Setaria faberii
In short: as §1

crabgrass, large = assay: Test A pre-/postemergence herbicide test; format: in vivo, Digitaria sanguinalis
In short: as §1

wheat = assay: Test A pre-/postemergence herbicide test; format: in vivo, Triticum aestivum
In short: as §1

barnyardgrass [1] = assay: Test A pre-/postemergence herbicide test; format: in vivo, Echinochloa crus-galli
In short: as §1

barnyardgrass [2] = assay: Test B flooded paddy test; format: in vivo, Echinochloa crus-galli; details: Flood, scale of 0 to 100 where 0 is no effect and 100 is complete control
Method: as §2

ducksalad = assay: Test B flooded paddy test; format: in vivo, Heteranthera limosa; details: Flood, scale of 0 to 100 where 0 is no effect and 100 is complete control
In short: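 Plants were grown to the 2-leaf stage, then pots were flooded to 3 cm above the soil and compound was applied directly into the paddy water, with that depth held throughout. After 13 to 15 days in a greenhouse, injury was rated visually against untreated controls on a 0 to 100 scale (100 = complete control).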

rice = assay: Test B flooded paddy test; format: in vivo, Oryza sativa; details: Flood, scale of 0 to 100 where 0 is no effect and 100 is complete control
Method: as §2

pigweed = assay: Test A pre-/postemergence herbicide test; format: in vivo, Amaranthus retroflexus
In short: as §1

morningglory = assay: Test A pre-/postemergence herbicide test; format: in vivo, Ipomoea spp.
In short: as §1

[3] = Postemergence, 125 g ai/ha, 0 to 100 scale, 0 no effect, 100 complete control
[4] = Postemergence, 500 g ai/ha, 0 to 100 scale (0 no effect, 100 complete control)
[5] = Preemergence, 125 g ai/ha, visual rating on 0 to 100 scale (0 no effect, 100 complete control)
[6] = preemergence, 500 g ai/ha, 0 to 100 scale
[7] = preemergence, 500 g ai/ha, 0 to 100 scale (0 no effect, 100 complete control)
[8] = Postemergence, 1000 g ai/ha, 0 to 100 scale (0 no effect, 100 complete control)
[9] = Preemergence, 1000 g ai/ha, visual rating on 0 to 100 scale (0 no effect, 100 complete control), approx. 10 days

Row | SMILES | Plant response rating, Velvetleaf (velvetleaf; [3]) | Plant response rating, Velvetleaf (velvetleaf; [4]) | Velvetleaf plant response rating (velvetleaf; [5]) | Plant response rating, Velvetleaf (velvetleaf; [6]) | Plant response rating, Sedge, Umbrella (sedge, umbrella; 250 g ai/ha) | Plant response rating, Corn (corn; [3]) | Plant response rating, Corn (corn; [4]) | Corn plant response rating (corn; [5]) | Plant response rating, Corn (corn; [6]) | Plant response rating, Foxtail, Giant (giant foxtail; [3]) | Plant response rating, Foxtail, Giant (giant foxtail; [4]) | Foxtail, Giant plant response rating (giant foxtail; [5]) | Plant response rating, Foxtail, Giant (giant foxtail; [6]) | Plant response rating, Crabgrass, Large (crabgrass, large; [3]) | Plant response rating, Crabgrass, Large (crabgrass, large; [4]) | Crabgrass, Large plant response rating (crabgrass, large; [5]) | Plant response rating, Crabgrass, Large (crabgrass, large; [6]) | Plant response rating, Wheat (wheat; [3]) | Plant response rating, Wheat (wheat; [4]) | Wheat plant response rating (wheat; [5]) | also measured
1 | Cc1cccc(C2CNC(=O)C2C(=O)Nc2ccccc2F)c1 (racemic) [Compound 38] | 0 | 0 | 0 | 0 | 0 | 0 | 0 | 0 | 0 | 0 | 20 | 0 | 30 | 0 | 50 | 70 | 80 | 0 | 0 | 0 | Plant response rating, Wheat (wheat; [6]): 0; Plant response rating, Barnyardgrass (barnyardgrass [1]; [3]): 0; Plant response rating, Barnyardgrass (barnyardgrass [1]; [4]): 30; Barnyardgrass plant response rating (barnyardgrass [1]; [5]): 0; Plant response rating, Barnyardgrass (barnyardgrass [1]; [7]): 80; Plant response rating, Barnyardgrass (barnyardgrass [2]; 250 g ai/ha): 0; Plant response rating, Ducksalad (ducksalad; 250 g ai/ha): 0; Plant response rating, Rice (rice; 250 g ai/ha): 0; Plant response rating, Pigweed (pigweed; [3]): 0; Plant response rating, Pigweed (pigweed; [4]): 0; Pigweed plant response rating (pigweed; [5]): 0; Plant response rating, Pigweed (pigweed; [6]): 0; Plant response rating, Morningglory (morningglory; [3]): 0; Plant response rating, Morningglory (morningglory; [4]): 0; Morningglory plant response rating (morningglory; [5]): 0; Plant response rating, Morningglory (morningglory; [6]): 0
2 | N#Cc1cccc(C2CNC(=O)C2C(=O)Nc2ccccc2F)c1 (racemic) [Compound 72] | 0 | 0 | 0 | 0 | 0 | 0 | 0 | 0 | 0 | 10 | 50 | 60 | 80 | 30 | 70 | 80 | 90 | 0 | 0 | 0 | Plant response rating, Wheat (wheat; [6]): 0; Plant response rating, Barnyardgrass (barnyardgrass [1]; [3]): 20; Plant response rating, Barnyardgrass (barnyardgrass [1]; [4]): 60; Barnyardgrass plant response rating (barnyardgrass [1]; [5]): 0; Plant response rating, Barnyardgrass (barnyardgrass [1]; [7]): 50; Plant response rating, Barnyardgrass (barnyardgrass [2]; 250 g ai/ha): 0; Plant response rating, Ducksalad (ducksalad; 250 g ai/ha): 60; Plant response rating, Rice (rice; 250 g ai/ha): 0; Plant response rating, Pigweed (pigweed; [3]): 0; Plant response rating, Pigweed (pigweed; [4]): 0; Pigweed plant response rating (pigweed; [5]): 0; Plant response rating, Pigweed (pigweed; [6]): 0; Plant response rating, Morningglory (morningglory; [3]): 0; Plant response rating, Morningglory (morningglory; [4]): 10; Morningglory plant response rating (morningglory; [5]): 0; Plant response rating, Morningglory (morningglory; [6]): 0
3 | O=C1NCC(c2ccc3c(c2)OC(F)(F)O3)C1C(=O)Nc1ccccc1C(F)(F)F (racemic) [Compound 75] | 10 | 20 | 0 | 0 | 0 | 0 | 0 | 0 | 0 | 70 | 80 | 80 | 90 | 60 | 80 | 90 | 90 | 0 | 30 | 0 | Plant response rating, Wheat (wheat; [6]): 30; Plant response rating, Barnyardgrass (barnyardgrass [1]; [3]): 40; Plant response rating, Barnyardgrass (barnyardgrass [1]; [4]): 70; Barnyardgrass plant response rating (barnyardgrass [1]; [5]): 50; Plant response rating, Barnyardgrass (barnyardgrass [1]; [7]): 70; Plant response rating, Barnyardgrass (barnyardgrass [2]; 250 g ai/ha): 0; Plant response rating, Ducksalad (ducksalad; 250 g ai/ha): 0; Plant response rating, Rice (rice; 250 g ai/ha): 0; Plant response rating, Pigweed (pigweed; [3]): 0; Plant response rating, Pigweed (pigweed; [4]): 0; Pigweed plant response rating (pigweed; [5]): 0; Plant response rating, Pigweed (pigweed; [6]): 0; Plant response rating, Morningglory (morningglory; [3]): 0; Plant response rating, Morningglory (morningglory; [4]): 0; Morningglory plant response rating (morningglory; [5]): 0; Plant response rating, Morningglory (morningglory; [6]): 0
4 | O=C1NCC(c2ccccc2)C1C(=O)Nc1ccccc1Cl (racemic) [Compound 83] | 0 | 0 | 0 | 0 | 0 | 0 | 0 | 0 | 0 | 0 | 50 | 0 | 70 | 20 | 70 | 70 | 90 | 0 | 0 | 0 | Plant response rating, Wheat (wheat; [6]): 0; Plant response rating, Barnyardgrass (barnyardgrass [1]; [4]): 60; Barnyardgrass plant response rating (barnyardgrass [1]; [5]): 0; Plant response rating, Barnyardgrass (barnyardgrass [1]; [7]): 50; Plant response rating, Barnyardgrass (barnyardgrass [2]; 250 g ai/ha): 30; Plant response rating, Ducksalad (ducksalad; 250 g ai/ha): 50; Plant response rating, Rice (rice; 250 g ai/ha): 0; Plant response rating, Pigweed (pigweed; [3]): 0; Plant response rating, Pigweed (pigweed; [4]): 0; Pigweed plant response rating (pigweed; [5]): 0; Plant response rating, Pigweed (pigweed; [6]): 0; Plant response rating, Morningglory (morningglory; [3]): 0; Plant response rating, Morningglory (morningglory; [4]): 0; Morningglory plant response rating (morningglory; [5]): 0; Plant response rating, Morningglory (morningglory; [6]): 0
5 | O=C1NCC(c2ccccc2)C1C(=O)Nc1ccc(Br)cc1F (racemic) [Compound 84] | 0 | 0 | 0 | 0 | 0 | 0 | 0 | 0 | 0 | 0 | 0 | 0 | 0 | 0 | 20 | 0 | 50 | 0 | 0 | 0 | Plant response rating, Wheat (wheat; [6]): 0; Plant response rating, Barnyardgrass (barnyardgrass [1]; [3]): 0; Plant response rating, Barnyardgrass (barnyardgrass [1]; [4]): 0; Barnyardgrass plant response rating (barnyardgrass [1]; [5]): 0; Plant response rating, Barnyardgrass (barnyardgrass [1]; [7]): 0; Plant response rating, Barnyardgrass (barnyardgrass [2]; 250 g ai/ha): 0; Plant response rating, Ducksalad (ducksalad; 250 g ai/ha): 0; Plant response rating, Rice (rice; 250 g ai/ha): 0; Plant response rating, Pigweed (pigweed; [3]): 0; Plant response rating, Pigweed (pigweed; [4]): 0; Pigweed plant response rating (pigweed; [5]): 0; Plant response rating, Pigweed (pigweed; [6]): 0; Plant response rating, Morningglory (morningglory; [3]): 0; Plant response rating, Morningglory (morningglory; [4]): 0; Morningglory plant response rating (morningglory; [5]): 0; Plant response rating, Morningglory (morningglory; [6]): 0
6 | O=C1NCC(c2ccc(F)c(F)c2)C1C(=O)Nc1cccnc1C(F)(F)F (racemic) [Compound 98] |  |  |  |  |  |  |  |  |  |  |  |  |  |  |  |  |  |  |  |  | Plant response rating, Velvetleaf (velvetleaf; [8]): 10; Plant response rating, Velvetleaf (velvetleaf; [9]): 0; Plant response rating, Sedge, Umbrella (sedge, umbrella; 1000 g ai/ha): 0; Plant response rating, Corn (corn; [8]): 0; Plant response rating, Corn (corn; [9]): 20; Plant response rating, Foxtail, Giant (giant foxtail; [8]): 60; Plant response rating, Foxtail, Giant (giant foxtail; [9]): 90; Plant response rating, Crabgrass, Large (crabgrass, large; [8]): 90; Plant response rating, Crabgrass, Large (crabgrass, large; [9]): 90; Plant response rating, Wheat (wheat; [8]): 20; Plant response rating, Wheat (wheat; [9]): 0; Plant response rating, Barnyardgrass (barnyardgrass [1]; [8]): 50; Plant response rating, Barnyardgrass (barnyardgrass [1]; [9]): 50; Plant response rating, Barnyardgrass (barnyardgrass [2]; 1000 g ai/ha): 0; Plant response rating, Ducksalad (ducksalad; 1000 g ai/ha): 90; Plant response rating, Rice (rice; 1000 g ai/ha): 0; Plant response rating, Pigweed (pigweed; [8]): 0; Plant response rating, Pigweed (pigweed; [9]): 0; Plant response rating, Morningglory (morningglory; [8]): 0; Plant response rating, Morningglory (morningglory; [9]): 0
